Nine compounds from patent publication US4326054A, “Cleomycins and process for producing same” (Zaidan Hojin Biseibutsu Kagaku Kenkyu Kai, priority 1979, dated 1982) can be followed below.

Data set [1] has as its system Mycobacterium smegmatis ATCC 607. The data set is described as follows: Antimicrobial activity, agar plate-cylinder method, bleomycin A2 as standard (1,000 u/mg). Type of data set: cell-based. As to conditions: Examples, Step A; hydrochloride, copper-containing form; bleomycin A2 = 1,000 u/mg.
The test system is the same in data set [2]. Described as above. Type of data set: cell-based. The settings on record: copper-free form; for Antimicrobial potency: bleomycin A2 = 1,000 u/mg; for Antimicrobiral potency: Table 5, relative to bleomycin A2 = 1,000 u/mg. On the procedure:
Typical examples of the biological activities measured on cleomycins (copper-free form) are illustrated below.
Comparison was made with the relevant antibiotics bleomycins. The relative antimicrobial potency (u/mg) against Mycobacterium smegmatis ATCC 607 was measured by agar plate-cylinder method using bleomycin A2 as a standard (1,000 u/mg).
(Note: The antimicrobial potency was determined by taking bleomycin
A2 as 1,000 μ/mg and using Mycobacterium smegmatis ATCC 607 as a
test bacterium. Herinafter, the same was applied.)

Another data set deals with HeLa S3 cells. The data set is described as follows: Activity on cultured HeLa S3 cells (growth inhibition). The format is cell-based. On the procedure: Fifty percent inhibitory cocentration (LD50) was determined on a test compound cleomycin (No. 33) and on a reference compound bleomycin A2, from the percent of growth inhibition measured on HeLa S3 cells after the cells had been cultured in the presence of each of the compounds.

The nature of data set [3]: Solubility (physical and chemical properties, Tables 4-1 and 4-2). As to conditions: hydrochloride, also soluble in dimethylformamide, dimethylsulfoxide, and methanol.
Where [4] appears, read: Examples, Step B, hydrochloride.

Molecules are shown by their SMILES.

Consider `CCCCNCCCNCCCNC(=O)c1csc(-c2csc(CCNC(=O)C(NC(=O)C(C)C(O)C(C)NC(=O)C(NC(=O)c3nc(C(CC(N)=O)NCC(N)C(N)=O)nc(N)c3C)C(OC3OC(CO)C(O)C(O)C3OC3OC(CO)C(O)C(OC(N)=O)C3O)c3cnc[nH]3)C3(O)CC3)n2)n1` (stereo not shown), for which the Antimicrobial potency is 8,130 u/mg in data set [1] and 7,942 u/mg in data set [2] (setting [4]).

Regarding `Cc1c(N)nc(C(CC(N)=O)NCC(N)C(N)=O)nc1C(=O)NC(C(=O)NC(C)C(O)C(C)C(=O)NC(C(=O)NCCc1nc(-c2nc(C(=O)NCCCNCCCCN)cs2)cs1)C1(O)CC1)C(OC1OC(CO)C(O)C(O)C1OC1OC(CO)C(O)C(OC(N)=O)C1O)c1cnc[nH]1` (stereo not shown), the Antimicrobial potency was 3,520 u/mg in data set [1] and 3,575 u/mg in data set [2] (setting [4]).

As for `Cc1c(N)nc(C(CC(N)=O)NCC(N)C(N)=O)nc1C(=O)NC(C(=O)NC(C)C(O)C(C)C(=O)NC(C(=O)NCCc1nc(-c2nc(C(=O)NCCCCNC(=N)N)cs2)cs1)C1(O)CC1)C(OC1OC(CO)C(O)C(O)C1OC1OC(CO)C(O)C(OC(N)=O)C1O)c1cnc[nH]1` (stereo not shown) [4-guanidinobutylaminocleomycin], the Antimicrobial potency in data set [1] is listed as 3,350 u/mg; in data set [2] (setting [4]), 3,262 u/mg.

With `Cc1c(N)nc(C(CC(N)=O)NCC(N)C(N)=O)nc1C(=O)NC(C(=O)NC(C)C(O)C(C)C(=O)NC(C(=O)NCCc1nc(-c2nc(C(=O)NCCC[S+](C)C)cs2)cs1)C(C)O)C(OC1OC(CO)C(O)C(O)C1OC1OC(CO)C(O)C(OC(N)=O)C1O)c1cnc[nH]1` (stereo not shown) [Bleomycin A2, reference compound], the IC50 in the data set with HeLa S3 cells (Homo sapiens, HeLa S3, read-out: LD50 (fifty percent inhibitory concentration, growth inhibition)) stood at 0.73 µg/mL.

For `Cc1c(N)nc(C(CC(N)=O)NCC(N)C(N)=O)nc1C(=O)NC(C(=O)NC(C)C(O)C(C)C(=O)NC(C(=O)NCCc1nc(-c2nc(C(=O)NCCCCNC(=N)N)cs2)cs1)C1(O)CC1)C(OC1OC(CO)C(O)C(O)C1OC1OC(CO)C(O)C(OC(N)=O)C1O)c1cnc[nH]1` (stereo not shown) [Compound No. 2, 4-guanidinobutylaminocleomycin], in data set [2], the Antimicrobiral potency is reported as 3,262 u/mg. In addition, the Solubility entry in data set [3] (copper-containing form) and in data set [3] (copper-free form) was “Soluble in water” throughout.

Take `Cc1c(N)nc(C(CC(N)=O)NCC(N)C(N)=O)nc1C(=O)NC(C(=O)NC(C)C(O)C(C)C(=O)NC(C(=O)NCCc1nc(-c2nc(C(=O)NCCCN(C)CCCN)cs2)cs1)C1(O)CC1)C(OC1OC(CO)C(O)C(O)C1OC1OC(CO)C(O)C(OC(N)=O)C1O)c1cnc[nH]1` (stereo not shown) [Compound No. 20, 3-[N-methyl-N-(3-aminopropyl)]aminopropylaminocleomycin]: the Antimicrobial potency is 2,300 u/mg in data set [1] and 2,273 u/mg in data set [2] (setting [4]). In addition, in data set [2], the Antimicrobiral potency is 2,273 u/mg.

With `Cc1c(N)nc(C(CC(N)=O)NCC(N)C(N)=O)nc1C(=O)NC(C(=O)NC(C)C(O)C(C)C(=O)NC(C(=O)NCCc1nc(-c2nc(C(=O)NCCCNC(C)c3ccccc3)cs2)cs1)C1(O)CC1)C(OC1OC(CO)C(O)C(O)C1OC1OC(CO)C(O)C(OC(N)=O)C1O)c1cnc[nH]1` (stereo not shown) [Compound No. 33, 3-[(s)-1'-phenylethylamino]propylaminocleomycin], the Antimicrobial potency in data set [1] was 11,300 u/mg; in data set [2] (Example 1, Step B, sulfate) it was 10,949 u/mg. The Antimicrobiral potency in data set [2] is recorded as 10,949 u/mg. Further, the “anti-HeLa action compared with bleomycin A2 (in words)” value in the data set on HeLa S3 cells (copper-free hydrochloride) is “activity nearly equal to that of bleomycin A2”.

Take `Cc1c(N)nc(C(CC(N)=O)NCC(N)C(N)=O)nc1C(=O)NC(C(=O)NC(C)C(O)C(C)C(=O)NC(C(=O)NCCc1nc(-c2nc(C(=O)NCCC[S+](C)C)cs2)cs1)C1(O)CC1)C(OC1OC(CO)C(O)C(O)C1OC1OC(CO)C(O)C(OC(N)=O)C1O)c1cnc[nH]1` (stereo not shown) [compound 1, 3-s,s-dimethylmercaptopropylaminocleomycin]: the Antimicrobial potency in data set [1] is reported as 1,360 u/mg; in data set [2] (setting [4]) it was 1,320 u/mg. In data set [2], the Antimicrobiral potency is 1,320 u/mg. Besides, the Solubility result in data set [3] (copper-containing form) and in data set [3] (copper-free form) was “Soluble in water” in each case.

For the compound `CCCCNCCCNCCCNC(=O)c1csc(-c2csc(CCNC(=O)C(NC(=O)C(C)C(O)C(C)NC(=O)C(NC(=O)c3nc(C(CC(N)=O)NCC(N)C(N)=O)nc(N)c3C)C(OC3OC(CO)C(O)C(O)C3OC3OC(CO)C(O)C(OC(N)=O)C3O)c3cnc[nH]3)C3(O)CC3)n2)n1` (stereo not shown) [compound 11, 3-(3-n-butylaminopropylamino)propylaminocleomycin], the Antimicrobiral potency in data set [2] was 7,942 u/mg. In addition, the Solubility entry in data set [3] (copper-containing form) and in data set [3] (copper-free form) was “Soluble in water” in each case.
